Values quoted from earlier work in patent US9555113B2, “Compositions with a rheological modifier to reduce dissolution variability” (Durect Corporation, priority 2013, dated 2017).
Read-outs that look alike come from different tables or passages of the source.

Sucrose Acetate Isobutyrate [SAIB]
viscosity (pure SAIB at 80° C.): approximately 600 cP | viscosity (pure SAIB at ambient temperature (RT)): approximately 2,000,000 cP
